For 12 compounds, Activity and inhibition results are on record in ChEMBL document CHEMBL4130363, “Synthesis and pharmacological evaluation of benzamide derivatives as potent and selective sigma-1 protein ligands” (Eur J Med Chem, 2017).

Usually inhibition stands for the drop in the measured response relative to a control, in per cent.

Common to all, as to assay type: functional
Experiment [1] concerns the target T1, 5-hydroxytryptamine receptor 2C (Homo sapiens) (UniProt P28335).
T1 sequence (whole entry): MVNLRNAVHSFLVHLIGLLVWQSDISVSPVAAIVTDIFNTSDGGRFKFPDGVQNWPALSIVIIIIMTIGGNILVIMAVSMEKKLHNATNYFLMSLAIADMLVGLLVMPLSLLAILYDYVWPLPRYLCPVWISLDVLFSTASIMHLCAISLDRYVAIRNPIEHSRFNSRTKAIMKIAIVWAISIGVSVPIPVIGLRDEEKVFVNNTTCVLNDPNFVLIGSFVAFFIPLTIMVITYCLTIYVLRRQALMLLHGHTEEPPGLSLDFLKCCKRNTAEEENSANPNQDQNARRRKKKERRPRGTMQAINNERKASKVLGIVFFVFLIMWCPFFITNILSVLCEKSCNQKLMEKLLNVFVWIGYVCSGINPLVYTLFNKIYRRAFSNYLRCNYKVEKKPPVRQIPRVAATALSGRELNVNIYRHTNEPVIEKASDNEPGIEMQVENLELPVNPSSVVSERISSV
Description: Agonist activity at recombinant human 5-HT2C at 10 uM by aequorin reporter based assay relative to agonist.

Experiment [2] has as its target 5-hydroxytryptamine receptor 2B (Homo sapiens) (UniProt P41595). As to the kind of experiment: Antagonist activity at recombinant human 5-HT2B assessed as inhibition of agonist-induced effect at 10 uM by aequorin reporter based assay.
The target in experiment [3] is T2, Alpha-2A adrenergic receptor (Homo sapiens) (UniProt P08913).
T2 sequence (whole entry): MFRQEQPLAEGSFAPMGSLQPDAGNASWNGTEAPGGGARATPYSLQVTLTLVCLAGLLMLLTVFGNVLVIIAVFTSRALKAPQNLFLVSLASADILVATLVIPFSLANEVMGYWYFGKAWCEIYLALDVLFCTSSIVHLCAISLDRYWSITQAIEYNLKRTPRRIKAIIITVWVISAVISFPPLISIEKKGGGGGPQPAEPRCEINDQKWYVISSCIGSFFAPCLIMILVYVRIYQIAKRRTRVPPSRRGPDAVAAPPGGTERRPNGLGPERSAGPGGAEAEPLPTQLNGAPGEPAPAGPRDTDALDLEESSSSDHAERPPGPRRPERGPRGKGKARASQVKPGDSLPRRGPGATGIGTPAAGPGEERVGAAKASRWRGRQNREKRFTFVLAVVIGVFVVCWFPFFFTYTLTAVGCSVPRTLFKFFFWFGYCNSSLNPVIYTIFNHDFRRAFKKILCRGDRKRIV
As to the kind of experiment: Antagonist activity at recombinant human alpha-2a adrenergic receptor assessed as inhibition of agonist-induced effect at 10 uM by GTPgamma[35S] binding-based assay. Background: GTPγS is a poorly hydrolysed GTP analogue; its binding reports G protein activation.

Experiment [4] has as its target 5-hydroxytryptamine receptor 5A (Homo sapiens) (UniProt P47898). Description: Agonist activity at recombinant human 5-HT5A at 10 uM by aequorin reporter based assay relative to agonist.
Experiment [5] addresses Mu-type opioid receptor (Homo sapiens) (UniProt P35372). Description: Agonist activity at recombinant human mu-type opioid receptor at 10 uM by GTPgamma[35S] binding-based assay relative to agonist.
For experiment [6], the target named is T3, Neuropeptide Y receptor type 1 (Homo sapiens) (UniProt P25929).
T3 sequence (whole entry): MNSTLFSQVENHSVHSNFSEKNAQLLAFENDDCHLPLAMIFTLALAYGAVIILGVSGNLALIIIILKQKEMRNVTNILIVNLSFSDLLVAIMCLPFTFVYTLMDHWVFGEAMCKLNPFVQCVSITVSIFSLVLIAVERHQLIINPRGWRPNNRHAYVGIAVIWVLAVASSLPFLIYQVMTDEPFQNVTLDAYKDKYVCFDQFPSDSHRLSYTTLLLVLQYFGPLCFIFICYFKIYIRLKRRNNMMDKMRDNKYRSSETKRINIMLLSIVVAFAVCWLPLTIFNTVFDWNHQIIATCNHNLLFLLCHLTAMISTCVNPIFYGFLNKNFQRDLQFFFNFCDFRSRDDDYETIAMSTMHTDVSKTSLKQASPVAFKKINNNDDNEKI
Description: Agonist activity at recombinant human NPY1R assessed as induction of cAMP levels at 10 uM by HTRF assay relative to agonist. (Cyclic AMP is a second messenger, typically raised through Gs and lowered through Gi signalling.)

The target in experiment [7] is T4, Muscarinic acetylcholine receptor M4 (Homo sapiens) (UniProt P08173).
T4 sequence (whole entry): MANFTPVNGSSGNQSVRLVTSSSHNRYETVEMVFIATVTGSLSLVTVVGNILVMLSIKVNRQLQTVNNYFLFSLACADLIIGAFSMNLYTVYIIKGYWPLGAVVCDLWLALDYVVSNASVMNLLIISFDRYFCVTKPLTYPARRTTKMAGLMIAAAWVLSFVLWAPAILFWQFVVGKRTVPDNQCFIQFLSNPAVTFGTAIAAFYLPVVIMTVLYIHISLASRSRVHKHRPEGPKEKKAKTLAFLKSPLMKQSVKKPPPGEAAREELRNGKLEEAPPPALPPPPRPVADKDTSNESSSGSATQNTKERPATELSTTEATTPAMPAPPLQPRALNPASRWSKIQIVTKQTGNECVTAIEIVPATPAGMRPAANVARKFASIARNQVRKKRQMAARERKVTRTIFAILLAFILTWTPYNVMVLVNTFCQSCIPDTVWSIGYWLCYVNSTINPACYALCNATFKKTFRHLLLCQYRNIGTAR
Description: Agonist activity at recombinant human muscarinic M4 receptor at 10 uM by GTPgamma[35S] binding-based assay relative to agonist.

Experiment [8] addresses T5, Alpha-1A adrenergic receptor (Homo sapiens) (UniProt P35348).
T5 sequence (whole entry): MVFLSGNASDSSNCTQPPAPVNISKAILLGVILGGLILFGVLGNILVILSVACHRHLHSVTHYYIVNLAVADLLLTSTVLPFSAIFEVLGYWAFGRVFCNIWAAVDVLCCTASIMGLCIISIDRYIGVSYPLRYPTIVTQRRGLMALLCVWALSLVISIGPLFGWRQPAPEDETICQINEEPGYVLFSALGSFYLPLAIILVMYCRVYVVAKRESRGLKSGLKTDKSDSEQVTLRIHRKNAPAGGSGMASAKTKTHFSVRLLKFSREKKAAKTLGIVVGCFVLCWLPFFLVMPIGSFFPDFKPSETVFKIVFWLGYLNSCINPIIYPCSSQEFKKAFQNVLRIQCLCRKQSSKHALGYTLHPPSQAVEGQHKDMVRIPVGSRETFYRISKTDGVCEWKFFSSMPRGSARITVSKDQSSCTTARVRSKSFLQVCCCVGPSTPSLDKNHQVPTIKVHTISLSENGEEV
Description: Antagonist activity at recombinant human alpha-1a adrenergic receptor assessed as inhibition of agonist-induced […] reporter based assay.

In experiment [9] the target is Substance-P receptor (Homo sapiens) (UniProt P25103). Description: Antagonist activity at recombinant human NK1R assessed as inhibition of agonist-induced effect at 10 uM by aequorin reporter based assay.
Experiment [10] deals with Beta-2 adrenergic receptor (Homo sapiens) (UniProt P07550). As to the kind of experiment: Agonist activity at recombinant human beta-2 adrenergic receptor assessed as induction of cAMP levels at 10 uM by HTRF assay relative to agonist.
Chain of Beta-2 adrenergic receptor (Homo sapiens) (P07550 whole entry, looked up): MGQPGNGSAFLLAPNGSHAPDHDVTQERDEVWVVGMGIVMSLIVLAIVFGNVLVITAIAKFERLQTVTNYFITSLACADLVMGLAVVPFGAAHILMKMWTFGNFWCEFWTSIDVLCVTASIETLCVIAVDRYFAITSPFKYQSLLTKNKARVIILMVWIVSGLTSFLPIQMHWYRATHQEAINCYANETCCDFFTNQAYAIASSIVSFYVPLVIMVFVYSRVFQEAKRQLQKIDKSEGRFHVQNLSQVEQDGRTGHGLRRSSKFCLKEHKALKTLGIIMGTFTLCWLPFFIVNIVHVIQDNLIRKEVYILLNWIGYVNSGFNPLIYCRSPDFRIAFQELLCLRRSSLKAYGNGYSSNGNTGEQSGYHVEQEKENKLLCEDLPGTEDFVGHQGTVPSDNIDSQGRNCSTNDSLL

Chain of Mu-type opioid receptor (Homo sapiens) (P35372 whole entry): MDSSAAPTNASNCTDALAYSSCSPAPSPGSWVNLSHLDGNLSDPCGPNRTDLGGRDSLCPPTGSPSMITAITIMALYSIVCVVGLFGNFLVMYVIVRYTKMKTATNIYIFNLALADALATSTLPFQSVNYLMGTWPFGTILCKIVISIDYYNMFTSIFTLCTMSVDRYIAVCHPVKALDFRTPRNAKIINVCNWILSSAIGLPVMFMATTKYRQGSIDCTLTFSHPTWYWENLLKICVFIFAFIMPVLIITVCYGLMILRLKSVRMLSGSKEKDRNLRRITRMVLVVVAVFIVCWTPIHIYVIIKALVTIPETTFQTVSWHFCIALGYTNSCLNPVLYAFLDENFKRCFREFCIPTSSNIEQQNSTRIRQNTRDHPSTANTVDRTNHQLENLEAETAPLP
Chain of 5-hydroxytryptamine receptor 5A (Homo sapiens) (P47898 whole entry): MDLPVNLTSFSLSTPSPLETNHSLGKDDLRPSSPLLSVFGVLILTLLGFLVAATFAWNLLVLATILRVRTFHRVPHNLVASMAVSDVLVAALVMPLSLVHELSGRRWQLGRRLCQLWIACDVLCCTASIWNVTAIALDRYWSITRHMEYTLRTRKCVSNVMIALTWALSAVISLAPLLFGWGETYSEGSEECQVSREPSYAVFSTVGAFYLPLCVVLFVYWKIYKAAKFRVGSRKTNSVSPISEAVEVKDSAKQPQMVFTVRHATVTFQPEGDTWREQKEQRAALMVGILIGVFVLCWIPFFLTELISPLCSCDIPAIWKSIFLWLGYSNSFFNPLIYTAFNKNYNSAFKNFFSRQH
Chain of 5-hydroxytryptamine receptor 2B (Homo sapiens) (P41595 whole entry): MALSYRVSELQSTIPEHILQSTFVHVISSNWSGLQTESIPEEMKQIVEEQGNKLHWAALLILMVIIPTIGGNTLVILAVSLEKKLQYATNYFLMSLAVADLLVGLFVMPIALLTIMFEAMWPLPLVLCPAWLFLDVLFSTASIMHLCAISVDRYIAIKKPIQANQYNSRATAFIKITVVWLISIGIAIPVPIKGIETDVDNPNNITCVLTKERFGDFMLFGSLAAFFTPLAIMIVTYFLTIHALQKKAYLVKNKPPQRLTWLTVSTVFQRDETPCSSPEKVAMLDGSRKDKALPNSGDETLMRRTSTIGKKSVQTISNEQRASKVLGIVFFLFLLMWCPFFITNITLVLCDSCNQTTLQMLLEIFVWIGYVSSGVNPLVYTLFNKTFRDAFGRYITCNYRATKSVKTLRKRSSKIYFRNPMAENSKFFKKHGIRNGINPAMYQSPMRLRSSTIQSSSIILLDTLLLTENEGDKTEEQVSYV
Chain of Substance-P receptor (Homo sapiens) (P25103 whole entry): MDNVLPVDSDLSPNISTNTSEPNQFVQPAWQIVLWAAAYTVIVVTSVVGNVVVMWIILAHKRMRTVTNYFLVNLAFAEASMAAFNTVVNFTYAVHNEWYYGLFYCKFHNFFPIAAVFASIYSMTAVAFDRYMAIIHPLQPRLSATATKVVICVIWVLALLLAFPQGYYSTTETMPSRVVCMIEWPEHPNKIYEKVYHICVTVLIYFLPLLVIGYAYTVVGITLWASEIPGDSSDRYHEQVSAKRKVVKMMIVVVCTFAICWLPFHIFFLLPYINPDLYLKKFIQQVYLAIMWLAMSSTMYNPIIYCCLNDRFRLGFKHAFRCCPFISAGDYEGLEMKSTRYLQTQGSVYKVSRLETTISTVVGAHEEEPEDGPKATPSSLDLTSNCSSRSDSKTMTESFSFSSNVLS

Consider `CN(CCCNC(=O)c1cccc(Br)c1)Cc1ccccc1`, for which the Activity was -3% in experiment [1]; -1% in [4]; 15% in [5]; 1% in experiment [6]; -12% in [7]; 1% in experiment [10]. For the same compound, the inhibition in experiment [2] came out at 78%; in [3], 57%; in experiment [8], 97%; in experiment [9], 58%.

In the case of `CN(CCCNC(=O)c1ccc(C(F)(F)F)cc1)Cc1ccccc1`, the Activity in [1] is -7%; in experiment [4], -1%; in experiment [5] it was 43%; in [6], 9%; in experiment [7], -4%; in experiment [10] it was 1%. In addition, the inhibition in [2] came to 66%; in experiment [3], 49%; in experiment [8], 79%; in [9] it was 33%.

For `CCCc1ccc(C(=O)NCCCN(C)Cc2ccccc2)cc1`, the Activity in experiment [1] was 63%; in [4], 0%; in experiment [5] it was 31%; in experiment [6], 2%; in experiment [7], -10%; in [10], 6%. In addition, the inhibition in experiment [2] stood at 75%; in [3], 37%; in experiment [8] it was 96%; in [9], 34%.

Regarding `CN(CCNC(=O)c1ccc([N+](=O)[O-])cc1)Cc1ccccc1`, the Activity was 13% in experiment [1]; -9% in experiment [4]; 60% in [5]; 3% in experiment [6]; 0% in experiment [7]; 3% in [10]. Further, the inhibition in experiment [2] turned out to be 35%; in experiment [3], 32%; in experiment [8], 62%; in experiment [9] it was 18%.

For `CN(CCNC(=O)c1ccc(C#N)cc1)Cc1ccccc1`, the Activity in [1] is -1%; in experiment [4] it was -7%; in experiment [5] it was 66%; in experiment [6], 4%; in experiment [7], -1%; in experiment [10], 0%. Also, the inhibition was determined as 16% in [2], 19% in [3], 56% in experiment [8] and 14% in experiment [9].

For `CN(CCCNC(=O)c1ccc(Br)cc1)Cc1ccccc1`, the Activity in [1] was 11%; in [4], 1%; in [5], 39%; in [6], 5%; in [7], -10%; in experiment [10], 2%. The inhibition worked out at 37% in [2], 42% in experiment [3], 93% in experiment [8] and 4% in [9].

As to `CN(CCNC(=O)c1ccc(Cl)cc1)Cc1ccccc1`, the Activity in experiment [1] is 62%; in [4], -1%; in experiment [5], 62%; in experiment [6] it was -2%; in experiment [7] it was -4%; in experiment [10] it was 0%. Moreover, the inhibition was found to be 66% in experiment [2], 45% in experiment [3], 96% in experiment [8] and 22% in experiment [9].

As to `COc1cccc(C(=O)NCCCN(C)Cc2ccccc2)c1`, the Activity is 5% in experiment [1]; -3% in [4]; 16% in [5]; 0% in experiment [6]; -2% in experiment [7]; 8% in experiment [10]. Also, the inhibition in experiment [2] was 26%; in [3], 20%; in [8], 82%; in [9] it was 10%.

For `CN(CCCNC(=O)c1ccc(Cl)cc1)CCc1ccccc1`, the Activity was 75% in experiment [1]; 0% in [4]; 22% in experiment [5]; -4% in experiment [6]; -8% in experiment [7]; 2% in [10]. Moreover, the inhibition in [2] amounted to 92%; in [3], 105%; in [8], 95%; in experiment [9], 41%.

`COc1ccc(C(=O)NCCCN(C)Cc2ccccc2)cc1`: the Activity in [1] was 5%; in experiment [4] it was -5%; in experiment [5], 16%; in experiment [6], 1%; in experiment [7], -1%; in experiment [10], 8%. Further, the inhibition in experiment [2] worked out at 16%; in experiment [3], 23%; in experiment [8] it was 52%; in [9], 4%.

As to `CN(CCCNC(=O)c1ccc([N+](=O)[O-])cc1)Cc1ccccc1`, the Activity in experiment [1] was 2%; in experiment [4], -1%; in experiment [5] it was 31%; in [6], 1%; in [7], -5%; in experiment [10], -2%. The inhibition worked out at 26% in [2], 25% in experiment [3], 95% in experiment [8] and 21% in [9].

With `CN(CCCNC(=O)c1ccc(Cl)cc1)Cc1ccccc1`, the Activity in experiment [1] was 12%; in [4], 0%; in experiment [5], 26%; in experiment [6], 2%; in [7], -8%; in [10], 1%. Also, the inhibition in experiment [2] turned out to be 58%; in experiment [3], 50%; in experiment [8], 92%; in [9] it was 3%.
